Patent publication US10576456B2, “Systems and methods of preparing stabilized lipid assemblies” (ARIZONA BOARD OF REGENTS ON BEHALF OF THE UNIVERSITY OF …, priority 2014, dated 2020)

Columns and labels:
[1] = Frontal chromatography retention on poly(bis-SorbPC)-coated silica; assay type: physicochemical; conditions: PBS pH 7.4, 1 μL min^−1, 100 μM sample
Method: (§1) Particles were packed in capillaries (50 μm or 75 μ[…].; Polymicro Technologies, Phoenix, Ariz.) against Microtight filter assemblies (Upchurch Scientific, Oak Harbor, Wash.). […] Frontal chromatography was performed using a lab-built instrument. Isocratic elution with PBS, pH 7.4, as the mobile phase utilized pressure driven flow that was applied by a Micropro Syringe Pumping System (Eldex, Napa, Calif.) connected to a […] injection valve (Valco, Houston, Tex.) with a 600 nL sample loop. […] The elution profile was monitored by ultraviolet absorbance detection (Model 500 Detector, ChromTech, Apple Valley, Minn.) at 220 nm. Signal from the detector was collected with an A/D converter (NI USB-6221, National Instruments, Austin, Tex.) and software written in LabVIEW (National Instruments). […] Statistical significance was determined using the two-tailed Student's t-test.

[2] = Frontal chromatography retention on bare silica; assay type: physicochemical; conditions: PBS pH 7.4, 1 μL min^−1, 100 μM sample
Method: as §1

[3] = TIRFM measurement of Alexa 488-CTB binding to GM1 in polymerized bis-SorbPC PSLB; conditions: 1 mol % GM1; 1 h static incubation
Method: Phosphate buffered saline (PBS) was used to measure the background. Alexa 488-CTB solutions (500 μL) were then injected into the flow cell, sequentially from the lowest concentration to the highest. One hour of static incubation after each injection, the fluorescent signal from GM1-bound Alexa 488-CTB was then measured. The fluorescent signal from dissolved Alexa 488-CTB was negligible so the dissolved protein solution was not flushed from the cell before each measurement. The solid line is a fit of the data to the Hill equation.
CTB labeled with Alexa Fluor 488 (Alexa 488-CTB) was purchased from Invitrogen (Eugene, Oreg.). Total internal reflection fluorescence microscopy (TIRFM) was used to measure the binding of Alexa 488-CTB to 1 mol % GM1 in a polymerized bis-SorbPC PSLB. The TIRFM system has been described previously. The 488 nm line of an Ar^+ laser (Ion Laser Technology) was coupled into a fused silica slide using a 45° prism (Edmund Optics). […] One of the internal reflections at the upper surface of the slide was used to excite fluorescence from Alexa 488-CTB bound to the PSLB. The fluorescence signal was collected using a 4× objective, directed through a 535DF35 (Omega Optical, Brattleboro, Vt.) band pass filter, and detected using CCD (Andor Technology USA, South Windsor, Conn.).

Row | Compound | Retention time [1] | Retention time [2] | dissolved concentration that saturates the PSLB [3]
1 | CC(=O)Oc1ccccc1C(=O)O [Acetylsalicylic acid] | 14.6 ± 0.6 min | 10.1 ± 0.2 min | –
2 | O=C(O)c1ccccc1 [Benzoic acid] | 14.1 ± 0.1 min | 9.6 ± 0.2 min | –
3 | O=C(O)c1ccccc1O [Salicylic acid] | 14.3 ± 0.1 min | 9.7 ± 0.1 min | –
4 | Alexa 488-CTB: CTB labeled with Alexa Fluor 488 | – | – | approximately 0.1 μM
